Literature values in patent US20250073140A1, “ANTIPERSPIRANT COMPOSITIONS CONTAINING A SYNERGISTIC COMBINATION OF COPPER, ALUMINUM, TIN, ZINC, ZIRCONIUM, AND SILVER SALTS, AND, METHODS OF USING” (priority 2023, published 2025).

Conditions: literature report

**Q.** Which antiperspirant activity does the source give for `[Cl][Cu][Cl]` [copper chloride] here?
**A.** Its antiperspirant activity is “demonstrated to have antiperspirant activity”.
